Key:
PC3 (prostate) = test: In vitro cytotoxic activity (MTT) assay, PC3; assay type: cell-based; conditions: Homo sapiens, Prostate cell; PC3 (prostate) cells, exposed for 96 hours; read-out: IC50, concentration of compound eliciting a 50% inhibition of cell proliferation
Method: (§1) Compounds 1-12 were screened for their in vitro cytotoxic activity utilizing a 3-(4,5-dimethyl-thiazol-2-yl)-2,5-diphenyltetrazolium bromide (MTT) assay against selected cancer human cell lines consisting of PC3 (prostate), HCT116 (colon), A375 (melanoma), H1299 (lung), MIAPaCa-2 (pancreas), HL60 (leukemia), MCF7 (breast), MDA-MB-231 (breast) (T. Mosmann, J. Immunol. Meth., 1983, 65, 55-63). The cells were cultured at 37° C. in RMPI1640 medium supplemented with 10% fetal bovine serum, 50 IU/mL penicillin, and 50 μg/mL streptomycin in a 5% CO2 incubator. All cells were sub-cultured 3 times/week by trypsinisation. Viable cells were seeded and allowed to adhere for 12 h before a test drug was added in 96-well plates at an initial density of 1.0×10^5 cells/mL. Tumour cell lines were separately exposed to various concentrations of the tested compounds followed by incubation at a temperature of 37° C. during 96 h inside a medium of fresh RMPI 1640. Cells were subsequently incubated at 37° C. using MTT at 0.5 mg/mL during 4 h. After removal of supernatant, formazan crystals were dissolved in isopropanol and the optical density was measured at 570 nm. CX-4945 was used as a positive control.

HCT116 (colon) = test: In vitro cytotoxic activity (MTT) assay, HCT116; assay type: cell-based; conditions: Homo sapiens, HCT-116; HCT116 (colon) cells, exposed for 96 hours; read-out: IC50, concentration of compound eliciting a 50% inhibition of cell proliferation
Method: as §1

A375 (melanoma) = test: In vitro cytotoxic activity (MTT) assay, A375; assay type: cell-based; conditions: Homo sapiens, A-375; A375 (melanoma) cells, exposed for 96 hours; read-out: IC50, concentration of compound eliciting a 50% inhibition of cell proliferation
Method: as §1

H1299 (lung) = test: In vitro cytotoxic activity (MTT) assay, H1299; assay type: cell-based; conditions: Homo sapiens, NCI-H1299; H1299 (lung) cells, exposed for 96 hours; read-out: IC50, concentration of compound eliciting a 50% inhibition of cell proliferation
Method: as §1

MIAPaCa-2 (pancreas) = test: In vitro cytotoxic activity (MTT) assay, MIAPaCa-2; assay type: cell-based; conditions: Homo sapiens, MIA PaCa-2; MIAPaCa-2 (pancreas) cells, exposed for 96 hours; read-out: IC50, concentration of compound eliciting a 50% inhibition of cell proliferation
Method: as §1

HL60 (leukemia) = test: In vitro cytotoxic activity (MTT) assay, HL60; assay type: cell-based; conditions: Homo sapiens, HL-60; HL60 (leukemia) cells, exposed for 96 hours; read-out: IC50, concentration of compound eliciting a 50% inhibition of cell proliferation
Method: as §1

MCF7 (breast) = test: In vitro cytotoxic activity (MTT) assay, MCF7; assay type: cell-based; conditions: Homo sapiens; MCF7 (breast) cells, exposed for 96 hours; read-out: IC50, concentration of compound eliciting a 50% inhibition of cell proliferation
Method: as §1

MDA-MB-231 (breast) = test: In vitro cytotoxic activity (MTT) assay, MDA-MB-231; assay type: cell-based; conditions: Homo sapiens; MDA-MB-231 (breast) cells, exposed for 96 hours; read-out: IC50, concentration of compound eliciting a 50% inhibition of cell proliferation
Method: as §1

recombinant human CK2 = molecular target: T1, recombinant human CK2 (Homo sapiens, UniProt P68400); test: CK2 Kinase Assay (33P-ATP, substrate peptide RRRDDDSDDD); assay type: biochemical; conditions: final ATP concentration 15 μM, 10 min at 30° C.; read-out: protein kinase CK2 activity IC50
T1 construct: purchased Millipore
Method: CK2 Kinase Assay was conducted using the protocol as described in Pierre F. et al; J. Med. Chem. 2011, 54, 635-654. The tested compounds in aqueous solution were added at a volume of 10 μL to a reaction mixture comprising 10 μL of assay dilution buffer (ADB; 20 mM MOPS, pH 7.2, 25 mM β-glycerol phosphate, 5 mM EGTA, 1 mM sodium orthovanadate, and 1 mM dithiothreitol), 10 μL of substrate peptide (RRRDDDSDDD, dissolved in ADB at a concentration of 1 mM), 10 μL of recombinant human CK2 (RROP-holoenzyme, 25 ng dissolved in ADB; Millipore). Reactions were initiated by the addition of 10 μL of ATP solution (90% 75 mMMgCl2, 75 μM ATP (final ATP concentration:15 μM) dissolved in ADB; 10% [7-33P] ATP (stock 1 mCi/100 L; 3000 Ci/mmol (Perkin-Elmer) and maintained for 10 min at 30° C. The reactions were quenched with 100 μL of 0.75% phosphoric acid and then transferred to and filtered through a phosphor cellulose filter plate (Millipore). After washing each well five times with 0.75% phosphoric acid, the plate was dried under vacuum for 5 min and, following the addition of 15 μL of scintillation fluid to each well, the residual radioactivity was measured using a Wallac […] counter. The IC50 values were derived from eight concentrations of test inhibitors.

T1 sequence (P68400 whole entry): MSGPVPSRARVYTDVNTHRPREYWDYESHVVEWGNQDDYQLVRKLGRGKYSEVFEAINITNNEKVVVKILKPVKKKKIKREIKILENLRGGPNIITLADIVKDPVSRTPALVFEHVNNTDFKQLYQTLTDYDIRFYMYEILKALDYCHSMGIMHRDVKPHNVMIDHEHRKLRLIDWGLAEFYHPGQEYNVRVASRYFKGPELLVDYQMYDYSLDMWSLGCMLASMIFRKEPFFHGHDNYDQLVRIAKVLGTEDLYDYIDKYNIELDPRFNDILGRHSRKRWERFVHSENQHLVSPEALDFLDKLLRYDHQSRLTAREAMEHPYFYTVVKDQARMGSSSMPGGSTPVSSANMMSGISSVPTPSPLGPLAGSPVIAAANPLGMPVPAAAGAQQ
T1 sequence (P67870 whole entry partner): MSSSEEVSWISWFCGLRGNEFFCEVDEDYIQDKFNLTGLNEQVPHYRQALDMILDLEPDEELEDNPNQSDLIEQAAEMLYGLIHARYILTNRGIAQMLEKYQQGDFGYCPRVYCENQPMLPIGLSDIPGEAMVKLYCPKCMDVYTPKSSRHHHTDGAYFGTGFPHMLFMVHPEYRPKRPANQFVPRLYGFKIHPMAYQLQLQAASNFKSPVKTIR

IC50 (recombinant human CK2): 51 nM
SMILES: O=C(O)c1ccc2c(c1)c1ccncc1n2C(=O)c1cccc(Cl)c1 [Compound 7, 9-(3-chlorobenzoyl)-9H-pyrido[3,4-b]indole-6-carboxylic acid]
IC50 (PC3 (prostate)): 1600 nM
IC50 (HCT116 (colon)): 2400 nM
IC50 (A375 (melanoma)): 3900 nM
IC50 (H1299 (lung)): 1500 nM
IC50 (MIAPaCa-2 (pancreas)): 1900 nM
IC50 (HL60 (leukemia)): 1800 nM
IC50 (MCF7 (breast)): 4700 nM
IC50 (MDA-MB-231 (breast)): 3900 nM
